Measured values from ChEMBL document CHEMBL3507680, “University of Dundee, Gates Library screen for HepG2 cell viability”.

Assay: Human HepG2 cell viability assay in 384 well format
Assay type: toxicity, cell-based
Design: dose 125 nL, time 70.5 hour; concentration not given beside the values
Settings: HepG2 cells, read-out: Inhibition

SMILES | cytotoxicity at 70.5 h
O=C1CC(c2cccnc2)c2c(c(C(=O)O)cn2-c2ccc(Cl)cc2)N1 (configuration not stated) | -7.08%
CN1CCN(C(=O)c2cc3sccc3n2Cc2ccccc2F)CC1 | -9.9%
CC(C)[C@H](NC(=O)Cn1nc2c(cc1=O)CCCC2)C(=O)O | -4.44%
CCn1cc(-c2nn3c(C(F)(F)F)nnc3s2)cn1 | -16.2%
CN(C)CCCNC(=O)c1nc(Cc2c(Cl)cccc2Cl)no1 | 15.3%
O=C(Nc1ccccn1)c1csc(NC2CCCC2)n1 | 1.59%
Cc1nn(C)cc1C1CC(=O)Nc2c1cnn2C (configuration not stated) | -5.3%
Cc1nc(NC(=O)CN2C(=O)c3ccccc3NC2C(C)C)sc1C (configuration not stated) | -11.4%
CC1CCc2[nH]c(=O)c(C(=O)N3CCc4ccccc4C3)cc2C1 (configuration not stated) | 0.747%
COC(=O)[C@H](C)NC(=O)CSCc1nc2sc(C(C)C)cc2c(=O)[nH]1 | -9.3%
Cc1c(CC(C#N)C(=O)Nc2cccc(O)c2)cnn1C (configuration not stated) | -12.8%
C[C@@H](O)CNc1c(NCc2ccco2)c(=O)c1=O | -12.9%
O=c1c(NCCNCCO)c(N2CCN(Cc3ccccc3)CC2)c1=O | -3.52%
CC(C)CNC(=O)CNC(=O)c1nc(Cc2c(Cl)cccc2Cl)no1 | -9.72%
O=c1c(NCCCO)c(N2CCN(c3ccccc3)CC2)c1=O | -2.43%
CCOC(=O)c1sc(NC(=O)c2cc(=O)c(OC)c[nH]2)nc1C | -8.8%
O=c1c(NCCc2ccc(O)cc2)c(NCc2ccccn2)c1=O | 6.43%
CC(C)C(=O)Nc1ccc2c(c1)ncn2CC(=O)NCCN(C)C | -7%
O=C1CC(c2cccnc2)c2c(c(C(=O)O)cn2-c2ccccc2F)N1 (configuration not stated) | -13.2%
Cc1nn(C)cc1CC(C#N)C(=O)Nc1cccc(O)c1 (configuration not stated) | -12.6%
CN(Cc1ccccc1)C(=O)Cn1nc(N2CCOCC2)ccc1=O | 9.2%
COc1c[nH]c(C(=O)N2CCN(c3ccccc3)CC2)cc1=O | -11.3%
COc1ccccc1CNc1c(N2CCN(C(C)=O)CC2)c(=O)c1=O | -10.2%
O=C(NC1CC1)c1cccc(Oc2ccc3nncn3n2)c1 | -4.61%

SMILES | cytotoxicity at 70.5 h
CCNC(=O)C(C)Oc1ccc(N(C)S(C)(=O)=O)cc1 (configuration not stated) | -5.5%
Cn1ccc2cc(C(=O)N3CCOCC3)ccc21 | -9.22%
COc1ccc(NC(=O)c2cc3c([nH]c2=O)CCCC3=O)c(OC)c1 | -10.9%
Cc1cc(=O)n(CC(=O)Nc2ccc(Cl)cc2)nc1C | -2.9%
O=C1CC(c2ccc3c(c2)OCO3)c2cnn(C3CCCC3)c2N1 (configuration not stated) | -15.7%
CN1CCCC2(CCN(Cc3cncn3C3CCCCC3)C2)C1=O (configuration not stated) | -4.94%
CN1CCCCC1Cc1nc(Cc2cccc(F)c2)no1 (configuration not stated) | -7.83%
Cc1ccccc1CC(=O)N1CCc2c(ncnc2N2CCOCC2)C1 | 13.5%
CCC(C)c1ccc(NC(=O)C2CCN(C(=O)COC)CC2)cc1 (configuration not stated) | -6.71%
Cc1nc(N(C)CCN(C)C)c2cnn(C)c2n1 | 19.9%
COCc1nc2ncc3c(=O)n(-c4ccc(C(C)=O)cc4)ccc3n2n1 | -10.8%
Cc1cccc(C)c1OC1CN(Cc2cnn(C)c2)C1 | 0.587%
Cc1nn(C)c(C)c1-c1cc(-c2cc(CC(=O)O)cs2)nc(N)c1C#N | -7.79%
Cc1nonc1C1CCCN1Cc1ccc(C(=O)Nc2nccs2)cc1 (configuration not stated) | 9.65%
O=C1CC(c2ccccc2F)c2c(n(C3CCCC3)[nH]c2=O)N1 (configuration not stated) | -7.2%
CC(=O)N1CCCn2nc(CNS(=O)(=O)Cc3ccccc3)cc2C1 | -3.38%
COc1cccc(-c2cc(NCC(=O)O)nc3[nH]ccc23)n1 | 15.1%
CCCc1nc(C)cc(N2CCNC(C(=O)Nc3ccc(C)nc3)C2)n1 (configuration not stated) | 19.3%
COc1ccnc(CN2CCC=C(C(C)NC(C)=O)C2)c1OC (configuration not stated) | -3.19%
CC(C)(C)c1cc(CN2CCOC(CN)C2)n[nH]1 (configuration not stated) | 2.01%
O=C(NCCN1CCOCC1)c1ccc(-c2ccc(F)cc2)nc1O | -3.89%
CN1CC2(CCN(CCOCCO)CC2)CC(c2ccccc2)C1=O (configuration not stated) | 29.9%
CC(=O)NC1CC(C)(C)Cc2c1cnn2-c1cccc(F)c1 (configuration not stated) | -9.9%
COc1nc2c(cc1C(=O)NCCc1nc(C)c(C(=O)O)s1)CCC2 | 10%

SMILES | cytotoxicity at 70.5 h
O=C1CC(c2ccccc2)c2cnn(C3CCCC3)c2N1 (configuration not stated) | 18.5%
Cc1ccc2c(c1)OC(C)(C)CC2NC(=O)C1CCN(C)CC1 (configuration not stated) | -9.96%
O=C(CCN1CCOCC1)N1CCC(Cc2ccc(CO)cc2)C1 (configuration not stated) | -2.12%
O=C(CN1CCCC1Cn1cncn1)NCCOc1ccc(F)cc1 (configuration not stated) | -0.118%
Cc1ccccc1C1(CNC(=O)NC(C)c2nncn2C)CC1 (configuration not stated) | -2.77%
CC(NC(=O)NCC1(c2ccc(Cl)cc2)CC1)c1nncn1C (configuration not stated) | -2.86%
O=C(CN1CCCC1Cn1cccn1)NCCOc1cccc(F)c1 (configuration not stated) | -0.693%
CCNc1cc2c(nn1)CCN(C(=O)CCc1c(C)noc1C)C2 | 18.9%
Cc1nc(C2CCCN(C(=O)c3ccc(OCC4CC4)nc3)C2)no1 (configuration not stated) | -2.87%
CCOc1cc(C(=O)N2CCCC(c3noc(C)n3)C2)ccc1OC (configuration not stated) | -4.06%
CCNc1cc2c(nn1)CCN(C(=O)CCc1c(C)noc1Cl)C2 | -4.23%
CCNc1cc2c(nn1)CCN(C(=O)Cc1c(C)nn(C)c1C)C2 | -2.18%
Cc1cccc(C)c1OCCNC(=O)CN1CCN(C)CC1C (configuration not stated) | 16.7%
CCOc1ncccc1NC(=O)N1CCN(CC(=O)NC)CC1 | -8.56%
Fc1cc(CN2CCCC2Cn2cncn2)c2ncccc2c1 (configuration not stated) | 4.94%
CCOc1ncccc1NC(=O)N1CCN(Cc2ccncc2)CC1 | -4.21%
Cc1ccc(C(C)N(C)Cc2nc3c(cnn3C)c(=O)[nH]2)c(C)c1 (configuration not stated) | -4.81%
CN(CCCc1cc(-c2ccccc2)no1)S(C)(=O)=O | 8.59%
COc1ccccc1C(C)N(C)Cc1nc2c(cnn2C)c(=O)[nH]1 (configuration not stated) | -8.94%
O=C1NCCN1C1CCN(CCOc2ccccc2Cl)CC1 | 0.552%
Cn1ccnc1CN1CCN(Cc2ccc(C#N)cc2F)CC1 | -1.66%
Cn1ccnc1CN1CCN(Cc2ccc(C#N)cc2)CC1 | -2.96%
CC1CN(Cc2ccc(C#N)cc2F)CCN1Cc1nccn1C (configuration not stated) | -5.45%
COc1ccccc1OCCNC(=O)CN1CCN(C)CC1C (configuration not stated) | -2.58%

SMILES | cytotoxicity at 70.5 h
CC1CN(C)CCN1CC(=O)NCCOc1ccc2c(c1)OCO2 (configuration not stated) | 9.64%
CCc1ccc(S(=O)(=O)Nc2cc(C(=O)O)ccc2F)s1 | -3.74%
O=C1NCCN1C1CCN(CCOc2cccc3ccccc23)CC1 | 0.611%
CN1CCOC(CNCc2ccccc2OCc2ccccn2)C1 (configuration not stated) | -9.16%
CNc1nc(CNC(=O)Nc2cccc(CN(C)C)c2)cs1 | 0.614%
Cc1ccc(CC(=O)N2CCCC(c3cc(C(N)=O)[nH]n3)C2)cn1 (configuration not stated) | -2.37%
CNc1nc(CNC(=O)Nc2cccc(CC(F)(F)F)c2)cs1 | -4.82%
O=C(CN1CCOC(Cn2cncn2)C1)NCc1cccs1 (configuration not stated) | 29.2%
Cc1ccc(C2CCCN2S(=O)(=O)N(C)CCc2ccccn2)o1 (configuration not stated) | 4.42%
CSc1ccc(CN(C)C(=O)c2cc3c([nH]c2=O)CCCC3=O)cc1 | -2.82%
Cc1noc(C)c1C(=O)NCCSCc1cccs1 | 0.282%
CS(=O)(=O)NC1CCN(C(=O)NCCc2ccccn2)CC1 | 13.9%
CS(=O)(=O)NC1CCN(C(=O)NCc2ccccn2)CC1 | -2.65%
CCc1nc(CN2CCN(C(=O)c3cncnc3CC)CC2)cs1 | -3.73%
COCCCNC(=O)CN(C)C(=O)c1ccc(OC)cc1O | -5.57%
Cc1cc(C)n(CC2CN(CC(=O)NCc3cccs3)CCO2)n1 (configuration not stated) | 13.4%
COCCNC(=O)CN1CCN(c2nc(C)cs2)CC1 | -3.26%
O=C(CN1CCOC(Cn2cccn2)C1)NCc1ccco1 (configuration not stated) | -2.4%
O=C(CN1CCOC(Cn2cccn2)C1)NCCc1cccs1 (configuration not stated) | -4.13%
Cc1csc(N2CCN(CC(=O)NC3CCOCC3)CC2C)n1 (configuration not stated) | -1.39%
Cc1nn(C)c(C)c1C1CCCN1C(=O)c1ccc2nnc(C)n2c1 (configuration not stated) | -2.36%
CC(C)N(Cc1ccccn1)S(=O)(=O)N1CCCC1c1ccco1 (configuration not stated) | 3.04%
N#CCCN(C(=O)CN1CCCC1c1cccs1)c1ccccc1F (configuration not stated) | 1.76%
CCc1ccc(C(=O)N2CCCCC2Cn2cccn2)o1 (configuration not stated) | 6.61%

SMILES | cytotoxicity at 70.5 h
Cc1cnn(CCNCc2ccccc2F)c1 | 0.747%
Cc1ccc(OCCN2CCN(Cc3cnn(CCO)c3)CC2)cc1 | -0.0785%
CN(Cc1cnn(C)c1)C(=O)NCc1cc(Br)cs1 | -2.54%
Cc1ncsc1C(=O)NCCc1cccs1 | 2.38%
N#CCCN(C(=O)CN1CCCC1c1ccsc1)c1ccccc1 (configuration not stated) | 20.9%
Cc1cncc(C(=O)NCCSCc2cccs2)c1 | -3.14%
CCc1nnc2n1CCN(Cc1cccc3c1OCCO3)C2 | 21.6%
c1ccc(-c2nnc3n2CCN(Cc2ccc4c(c2)OCCO4)C3)cc1 | 26.9%
c1ccc2oc(CN3CCCC3c3noc(C4CC4)n3)nc2c1 (configuration not stated) | -11.3%
CCOc1ncccc1CNc1nnc(C)c(C)c1C#N | -0.879%
Cc1nnc(NCc2ccccc2F)c(C#N)c1C | -5.23%
Cc1nnc(NCc2ccccc2S(=O)(=O)N(C)C)c(C#N)c1C | 0.114%
COc1cccc(C(NCc2ccc(SC)cc2)c2nccn2C)c1 (configuration not stated) | 3.42%
COc1ccccc1C(NCc1ccc(SC)cc1)c1nccn1C (configuration not stated) | 11.2%
O=C(NCCn1nc2ccccn2c1=O)c1scnc1Cl | -2.79%
Cn1ccnc1C(NCc1ccccc1)c1ccc(F)cc1 (configuration not stated) | -2.68%
Cc1ncncc1C(=O)NCCn1nc2ccccn2c1=O | -3.41%
Cc1nnc(NCc2cccnc2OCC(F)(F)F)c(C#N)c1C | -0.691%
Cc1nc(C)c(C(=O)NCCn2nc3ccccn3c2=O)s1 | -1.89%
CCc1nnc2n1CCN(Cc1cc(Cl)c3c(c1)OCCCO3)C2 | 0.524%
CSc1ccc(CNC(c2ccccc2F)c2nccn2C)cc1 (configuration not stated) | 0.516%
